Assay [1] deals with T1, LTD4-induced contractions of isolated guinea pig trachea (Cavia porcellus, UniProt Q2NNR5).
T1 construct: isolated guinea pig trachea; from tissue; host or cells: tracheal rings of male Hartley guinea pigs
T1 sequence (Q2NNR5 1-340): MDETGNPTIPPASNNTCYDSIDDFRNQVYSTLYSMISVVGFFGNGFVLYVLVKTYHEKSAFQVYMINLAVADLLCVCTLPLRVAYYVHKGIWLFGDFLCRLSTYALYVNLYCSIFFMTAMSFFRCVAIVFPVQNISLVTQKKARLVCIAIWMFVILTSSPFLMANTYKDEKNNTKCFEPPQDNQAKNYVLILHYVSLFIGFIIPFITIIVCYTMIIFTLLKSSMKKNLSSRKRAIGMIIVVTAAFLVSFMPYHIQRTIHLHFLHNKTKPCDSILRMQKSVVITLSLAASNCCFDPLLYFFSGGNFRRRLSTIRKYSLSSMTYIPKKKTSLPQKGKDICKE
The assay is described as follows: In vitro isolated guinea pig trachea assay, LTD4 antagonist activity. The arrangement: species or system guinea pig (male Hartley). The following applies: 1 × 10^-5 M. The protocol:
The LTD4 antagonist activity of the compounds of the invention is assessed in the in vitro isolated guinea pig trachea assay. This assay is carried out as follows: Male Hartley guinea pigs (350-400 g) are euthanized by a blow to the head, the neck is opened and the trachea removed. The trachea is maintained in aerated physiological salt solution, cleared of connective tissue and fat and cut into rings approximately 2 mm in width (usually containing two cartilaginous segments per ring). Two pieces of silk suture are then passed through the lumen of the tracheal ting and are tied around the cartilage, one on each side of the trachealis muscle. The tracheal ring is suspended between a glass hook and a force displacement transducer in a 10 ml organ bath for measurement of isometric tension. […] The tracheal rings are maintained at 2 g resting tension and equilibrated for 45 minutes (with frequent washing and readjustment of resting tension). The tracheal […] contracted by the addition of carbachol (3×10^-6 M), to determine tissue responsiveness and establish a reference contraction. On attainment of a stable level of contraction (approximately 30 minutes), the tissues are washed several times until baseline tension has been restored and the re-equilibrated for 30 minutes. The tissues are then incubated for 45 minutes with a test antiagonist (either 1×10^-6 M or 1×10^-5 M) or 10 μl of an appropriate solvent control (control, nontreated). One tissue in each group serves as the control. Twenty minutes prior to the construction of the LTD4 cumulative concentration-response curve, L-[…]×10^-2 M final bath concentration) is added to inhibit bioconversion of LTD4 to LTE4. Only one LTD4 concentration-response curve is constructed in each tissue. All responses to LTD4 in an individual tissue are measured as a percentage of the reference contraction of that tissue to carbachol. LTD4 antagonist activity is determined by comparison of the concentration response curves of LTD4 in the presence and absence of antagonist. Assessment of the relative rightward shift of the antagonist treated curve relative to the solvent (control) treated tissue is calculated as a concentration ratio (Eq. A) and used in subsequent calculations to derive an antagonist pKB value (Eqs. B and C). […] If a compound is found to be active and/or depress the maximal response to LTD4, then a range of concentrations of the test compound should be used generating multiple concentration ratios which would then be used to perform a Schild analysis, and determination of a pA2 value where appropriate.

In assay [2] the test system is 5-lipoxygenase in human whole blood. The assay is described as follows: Inhibition of 5-lipoxygenase in human whole blood (LTB4). The class given is cell-based. The method, boiled down: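 Donor whole blood was preincubated with compound (0.1% final DMSO) 10 min at 37° C, then stimulated with 30 μM A23187 for 20 min at 27° C and stopped with EGTA on ice. Plasma LTB4 quantified by RIA or ELISA as ng/10^6 neutrophils; effects given as percent change from control.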

Experimental findings from US5364944A, “Substituted benzoylbenzene-, biphenyl- and 2-oxazole- alkanoic acid compounds” (American Home Products Corporation, priority 1993, dated 1994) are described below.

The compound `CC(C(=O)N(C)O)c1ccc(-c2ccc(OCc3csc(-c4ccccc4)n3)cc2)cc1` (stereo not drawn) [Example 21, N-Hydroxy-N,α-dimethyl-4'-[(2-phenylthiazol-4-yl)methoxy][1,1'-biphenyl]-4-acetamide] showed a Kb in assay [1] of more than 10 µM. 7.8 µM corresponded to half-maximal inhibition in assay [2] (IC50). Besides, the “% Inhibition of LTB4” value in assay [2] (at 25 μM) stood at 85%.

In general, Kb refers to the equilibrium dissociation constant of an antagonist, usually derived from a functional assay. Low values mean higher antagonist affinity, high ones lower antagonist affinity. Broadly, the IC50 is the midpoint of a concentration-inhibition curve. A high value points to a need for much substance.
